In patent publication US12390437B2, “Itaconic acid derivatives and uses thereof intreating an inflammatory disease or a disease associated with an undesirable immune response” (Sitryx Therapeutics Limited, priority 2019, dated 2025):
Where two headings read alike, the source gives them in different places.

Legend:
[1] = test system: IL-1β cytokine output from THP-1s; experiment: THP-1 AlphaLISA IL-1β cytokine assay; format: cell-based, human; conditions: Homo sapiens, LPS 24 hr then Nigericin 1 hour, read-out: IL-1β (IC50)
Outline: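 THP-1 cells, PMA-differentiated 72 h; 30 min compound pre-incubation; LPS 24 h; nigericin 1 h; 37 °C/5% CO2. Supernatants read by AlphaLISA kit. IC50 from % inhibition vs concentration, normalised to +LPS (high) and −LPS (low) controls.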

[2] = test system: IL-6 cytokine output from THP-1s; experiment: THP-1 AlphaLISA IL-6 cytokine assay; format: cell-based, human; conditions: Homo sapiens; PMA-differentiated THP-1 cells, LPS 24 hr then Nigericin 1 hour
Method: Measuring Inhibitory Effects on IL-1β and IL-6 Cytokine Output from THP-1s
The cytokine inhibition profiles of compounds of formula (IW-1) were determined in a differentiated THP-1 cell assay. All assays were performed in RPMI-1640 growth medium (Gibco), supplemented with 10% fetal bovine serum (FBS; Gibco), 1% penicillin-streptomycin and 1% sodium pyruvate unless specified otherwise. The IL-1β and IL-6 cytokine inhibition assays were each run in a background of differentiated THP-1 cells as described below. All reagents described were from Sigma-Aldrich unless specified otherwise. Compounds were prepared as 10 mM DMSO stocks.
THP-1 cells were expanded as a suspension up to 80% confluence in appropriate growth medium. Cells were harvested, suspended, and treated with an appropriate concentration of phorbol 12-myristate 13-acetate (PMA) over a 72 hr period (37° C./5% CO2).
Following 72 hrs of THP-1 cell incubation, cellular medium was removed and replaced with fresh growth media containing 1% of FBS. Working concentrations of compounds were prepared separately in 10% FBS treated growth medium and pre-incubated with the cells for 30 minutes (37° C./5% CO2). Following the 30 minute compound pre-incubation, THP-1s were treated with an appropriate concentration of LPS and the THP-1s were subsequently incubated for a 24 hr period (37° C./5% CO2). An appropriate final concentration of Nigericin was then dispensed into the THP-1 plates and incubated for 1 hour (37° C./5% CO2) before THP-1 supernatants were harvested and collected in separate polypropylene 96-well holding plates.
Reagents from each of the IL-1β and IL-6 commercial kits (Perkin Elmer) were prepared and run according to the manufacturer's instructions. Subsequently, fluorescence signal detection in a microplate reader was measured (EnVision® Multilabel Reader, Perkin Elmer).
Percentage inhibition was calculated per cytokine by normalising the sample data to the high and low controls used within each plate (+/−LPS respectively). Percentage inhibition was then plotted against compound concentration and the 50% inhibitory concentration (IC50) was determined from the resultant concentration-response curve.

NRF2 = NRF2 +/-GSH activation assay (DiscoverX PathHunter NRF2 translocation kit, U2OS cells); format: cell-based; conditions: Homo sapiens; for Emax: read-out: NRF2 activation Emax; for EC50: read-out: NRF2 activation EC50
Method: Measuring Compound Activation Effects on the Anti-Inflammatory Transcription Factor NRF2 in DiscoverX PathHunter NRF2 Translocation Kit
Potency and efficacy of compounds of formula (IW-1) against the target of interest to activate NRF2 (nuclear factor erythroid 2-related factor 2) were determined using the PathHunter NRF2 translocation kit (DiscoverX). The NRF2 translocation assay was run using an engineered recombinant cell line, utilising enzyme fragment complementation to determine activation of the Keap1-NRF2 protein complex and subsequent translocation of NRF2 into the nucleus. Enzyme activity was quantified using a chemiluminescent substrate consumed following the formation of a functional enzyme upon PK-tagged NRF2 translocation into the nucleus.
The assay was run under either +/−GSH (glutathione) conditions to determine the attenuating activities of GSH against target compounds.
Additionally, a defined concentration of dimethyl fumarate was used as the ‘High’ control to normalise test compound activation responses to.
U2OS PathHunter eXpress cells were thawed from frozen prior to plating. Following plating, U2OS cells were incubated for 24 hrs (37° C./5% CO2) in commercial kit provided cell medium.
Following 24 hrs of U2OS incubation, cells were directly treated with an appropriate final concentration of compound, for −GSH conditions, or for +GSH conditions, an intermediate plate containing 6× working concentrations of compound stocks was prepared in a 6 mM working concentration of GSH solution (solubilised in sterile PBS). Following a 30 minute compound-GSH pre-incubation (37° C./5% CO2) for +GSH treatment, plated U2OS cells were incubated with an appropriate final concentration of compound and GSH.
Following compound (+/−GSH) treatment, the U2OS plates were incubated for a further 6 hours (37° C./5% CO2) before detection reagent from the PathHunter NRF2 commercial kit was prepared and added to test plates according to the manufacturer's instructions. Subsequently, the luminescence signal detection in a microplate reader was measured (PHERAstar®, BMG Labtech).
Percentage activation was calculated by normalising the sample data to the high and low controls used within each plate (+/−DMF). Percentage activation/response was then plotted against compound concentration and the 50% activation concentration (EC50) was determined from the plotted concentration-response curve.

[3] = THP-1, PMA-differentiated THP-1 cells
[4] = U2OS, normalised to dimethyl fumarate 'High' control, GSH condition not stated in Table 5
[5] = U2OS PathHunter cells, 6 hours, GSH condition not stated in Table 5

SMILES: C=C(CC(=O)OC)C(=O)OC1COC1 [Example 15, 4-methyl 1-(oxetan-3-yl) 2-methylenesuccinate]
- IC50 [1, 3]: 15.4 µM
- IC50 [2]: 8.9 µM

SMILES: C=C(CC(=O)OC(C)C)C(=O)OCCS(C)(=O)=O [Example 22, 4-isopropyl 1-(2-(methylsulfonyl)ethyl) 2-methylenesuccinate]
- IC50 [1, 3]: 15.4 µM
- IC50 [2]: 7 µM

SMILES: C=C(CC(=O)OCCCCCCCC)C(=O)O[C@H]1CCOC1 [Example 23, (S)-4-octyl 1-(tetrahydrofuran-3-yl) 2-methylenesuccinate]
- IC50 [1, 3]: 8.2 µM
- IC50 [2]: 4.5 µM

SMILES: C=C(CC(=O)OCCCCCCCC)C(=O)O[C@@H]1CCOC1 [Example 24, (R)-4-octyl 1-(tetrahydrofuran-3-yl) 2-methylenesuccinate]
- IC50 [1, 3]: 15 µM
- IC50 [2]: 4.2 µM

SMILES: C=C(CC(=O)OC1CCCCCCC1)C(=O)OCCS(C)(=O)=O [Example 25, 4-cyclooctyl 1-(2-(methylsulfonyl)ethyl) 2-methylenesuccinate]
- IC50 [1, 3]: 1.9 µM
- IC50 [2]: 1.9 µM

SMILES: C=C(CC(=O)OCCCCCCCC)C(=O)OC(C)CC#N (stereo not drawn) [Example 27, 1-(1-cyanopropan-2-yl) 4-octyl 2-methylenesuccinate]
- IC50 [1, 3]: 12.2 µM
- IC50 [2]: 6.4 µM

SMILES: C=C(CC(=O)OCCCCCCCC)C(=O)OC1CCN(S(C)(=O)=O)CC1 [Example 28, 1-(1-(methylsulfonyl)piperidin-4-yl) 4-octyl 2-methylenesuccinate]
- IC50 [1, 3]: 5.2 µM
- IC50 [2]: 2.2 µM

SMILES: C=C(CC(=O)OCCCCCCCC)C(=O)OCCOC [Example 29, 1-(2-methoxyethyl) 4-octyl 2-methylenesuccinate]
- IC50 [1, 3]: 18.4 µM
- IC50 [2]: 7.9 µM

SMILES: C=C(CC(=O)OCCCCCCCC)C(=O)OCC(C)(C)C#N [Example 30, 1-(2-cyano-2-methylpropyl) 4-octyl 2-methylenesuccinate]
- IC50 [1, 3]: 11.3 µM
- IC50 [2]: 4.8 µM

SMILES: C=C(CC(=O)OCCCCCCCC)C(=O)OC(C)COC (stereo not drawn) [Example 31, 1-(1-methoxypropan-2-yl) 4-octyl 2-methylenesuccinate]
- IC50 [1, 3]: 12.9 µM
- IC50 [2]: 15.5 µM

SMILES: C=C(CC(=O)OCCCCCCCC)C(=O)OCC1(C#N)CC1 [Example 32, 1-((1-cyanocyclopropyl)methyl) 4-octyl 2-methylenesuccinate]
- IC50 [1, 3]: 18.9 µM
- IC50 [2]: 9.5 µM

SMILES: C=C(CC(=O)OCCCCCCCC)C(=O)OCC(C)OC (stereo not drawn) [Example 33, 1-(2-methoxypropyl) 4-octyl 2-methylenesuccinate]
- IC50 [1, 3]: 14.1 µM
- IC50 [2]: 11.7 µM

SMILES: C=C(CC(=O)OCCCCCCCC)C(=O)OCC(C)(C)OC [Example 34, 1-(2-methoxy-2-methylpropyl) 4-octyl 2-methylenesuccinate]
- IC50 [1, 3]: 31.8 µM
- IC50 [2]: 16.1 µM

SMILES: C=C(CC(=O)OCCCCCCCC)C(=O)OCCN1CCOCC1 [Example 35, 1-(2-morpholinoethyl) 4-octyl 2-methylenesuccinate]
- IC50 [1, 3]: 6.7 µM
- IC50 [2]: 3.7 µM

SMILES: C=C(CC(=O)OCCOCCOCC)C(=O)OCCS(C)(=O)=O [Example 36, 4-(2-(2-ethoxyethoxy)ethyl) 1-(2-(methylsulfonyl)ethyl) 2-methylenesuccinate]
- IC50 [1, 3]: 20.5 µM
- IC50 [2]: 8.9 µM

SMILES: C=C(CC(=O)OCCCCCCCC)C(=O)OC(C)OC(C)=O (stereo not drawn) [Example 46, 1-(1-acetoxyethyl) 4-octyl 2-methylenesuccinate]
- IC50 [1, 3]: 6.7 µM
- IC50 [2]: 3 µM

SMILES: C=C(CC(=O)OCCCCCCCC)C(=O)OC1CS(=O)(=O)C1 [Example 47, 1-(1,1-dioxidothietan-3-yl) 4-octyl 2-methylenesuccinate]
- IC50 [1, 3]: 3.3 µM
- IC50 [2]: 3 µM

SMILES: C=C(CC(=O)OCCCCCCCC)C(=O)OCC(=O)OC(C)(C)C [Example 48, 1-(2-(tert-butoxy)-2-oxoethyl) 4-octyl 2-methylenesuccinate]
- IC50 [1, 3]: 10.1 µM
- IC50 [2]: 5.1 µM

SMILES: C=C(CC(=O)OCCCCCCCC)C(=O)OCCN1CCN(C)CC1 [Example 51, 1-(2-(4-methylpiperazin-1-yl)ethyl) 4-octyl 2-methylenesuccinate]
- IC50 [1, 3]: 7.3 µM
- IC50 [2]: 4 µM

SMILES: C=C(CC(=O)OCCCCCCCC)C(=O)OCCN1CCS(=O)(=O)CC1 [Example 52, 1-(2-(1,1-dioxidothiomorpholino)ethyl) 4-octyl 2-methylenesuccinate]
- IC50 [1, 3]: 8.5 µM
- IC50 [2]: 2.5 µM

SMILES: C=C(CC(=O)OCCCCCCCC)C(=O)OCCNS(C)(=O)=O [Example 53, 1-(2-(methylsulfonamido)ethyl) 4-octyl 2-methylenesuccinate]
- IC50 [1, 3]: 9.3 µM
- IC50 [2]: 5.4 µM

SMILES: C=C(CC(=O)OC1CC2(COC2)C1)C(=O)O[C@H]1[C@@H]2CC[C@H]1CN(S(C)(=O)=O)C2 [Example 157, 1-((endo)-3-(methylsulfonyl)-3-azabicyclo[3.2.1]octan-8-yl) 4-(2-oxaspiro[3.3]heptan-6-yl) 2-methylenesuccinate]
- IC50 [1, 3]: 41.6 µM
- Emax (NRF2; [4]): 29%
- EC50 (NRF2; [5]): > 100 µM

SMILES: C=C(CC(=O)OC1CCCOCC1)C(=O)O[C@H]1[C@@H]2CC[C@H]1CN(S(C)(=O)=O)C2 (stereo partly drawn) [Example 158, 1-((endo)-3-(methylsulfonyl)-3-azabicyclo[3.2.1]octan-8-yl) 4-(oxepan-4-yl) 2-methylenesuccinate]
- IC50 [1, 3]: 24.2 µM
- Emax (NRF2; [4]): 43%
- EC50 (NRF2; [5]): 72.8 µM

SMILES: C=C(CC(=O)OC(C)COCCCC)C(=O)O[C@H]1[C@@H]2CC[C@H]1CN(S(C)(=O)=O)C2 (stereo partly drawn) [Example 159, 4-(1-butoxypropan-2-yl) 1-((endo)-3-(methylsulfonyl)-3-azabicyclo[3.2.1]octan-8-yl) 2-methylenesuccinate]
- IC50 [1, 3]: 31.9 µM
- Emax (NRF2; [4]): 86%
- EC50 (NRF2; [5]): 13.8 µM

SMILES: C=C(CC(=O)OC1CC2(CCC2)C1)C(=O)OCC(O)(O)C(F)(F)F [Example 160, 4-spiro[3.3]heptan-2-yl 1-(3,3,3-trifluoro-2,2-dihydroxypropyl) 2-methylenesuccinate Hydrate]
- IC50 ([1]; PMA-differentiated THP-1 cells): 8.1 µM
- EC50 (NRF2; U2OS, 6 h): 72.6 µM
- Emax (NRF2; U2OS): 7%

SMILES: C=C(CC(=O)OC1CCCCCC1)C(=O)OCc1nn[nH]n1 [Example 162, 1-(2H-tetrazol-5-yl)methyl 4-cycloheptyl 2-methylenesuccinate]
- IC50 [1, 3]: 14.7 µM
- Emax (NRF2; [4]): 164%
- EC50 (NRF2; [5]): 31.3 µM

SMILES: C=C(CC(=O)OC1CC2(CCC2)C1)C(=O)OCc1nn[nH]n1 [Example 163, 1-(2H-tetrazol-5-yl)methyl 4-spiro[3.3]heptan-2-yl 2-methylenesuccinate]
- IC50 [1, 3]: 23.9 µM
- Emax (NRF2; [4]): 0%
- EC50 (NRF2; [5]): > 100 µM

SMILES: C=C(C(=O)OCC(=O)O)C(O)C(=O)OC1CCCCCCC1 (stereo not drawn) [Example 189, 2-((4-(cyclooctyloxy)-3-hydroxy-2-methylene-4-oxobutanoyl)oxy)acetic acid]
- IC50 [1, 3]: 57.9 µM
- Emax (NRF2; [4]): 137%
- EC50 (NRF2; [5]): 18 µM
